Converted amounts (≈) assume the structure as drawn.
Experiments:
Type in all cases: functional
Mythimna separata [1] = test: Larvicidal activity against fourth-instar larval stage of Mythimna separata (Oriental armyworm) in compound-pretreated corn leaves assessed as mortality at 25 mg/l at 25 +/-1 degC after 4 days
Culex pipiens pallens [2] = test: Larvicidal activity against fourth-instar larval stage of Culex pipiens pallens (mosquito) assessed as mortality at 0.0025 mg/l at 25 +/-1 degC after 8 days; settings: 192 h
Mythimna separata [3] = test: Larvicidal activity against fourth-instar larval stage of Mythimna separata (Oriental armyworm) in compound-pretreated corn leaves assessed as mortality at 0.25 mg/l at 25 +/-1 degC after 4 days
Mythimna separata [4] = test: Larvicidal activity against fourth-instar larval stage of Mythimna separata (Oriental armyworm) in compound-pretreated corn leaves assessed as mortality at 0.5 mg/l at 25 +/-1 degC after 4 days
Mythimna separata [5] = test: Larvicidal activity against fourth-instar larval stage of Mythimna separata (Oriental armyworm) in compound-pretreated corn leaves assessed as mortality at 5 mg/l at 25 +/-1 degC after 4 days
Mythimna separata [6] = test: Larvicidal activity against fourth-instar larval stage of Mythimna separata (Oriental armyworm) in compound-pretreated corn leaves assessed as mortality at 1 mg/l at 25 +/-1 degC after 4 days
Culex pipiens pallens [7] = test: Ratio of larvicidal activity of compound to larvicidal activity of Flucycloxuron for fourth-instar larval stage of Culex pipiens pallens (mosquito) measured after 8 days
Culex pipiens pallens [8] = test: Larvicidal activity against fourth-instar larval stage of Culex pipiens pallens (mosquito) assessed as mortality at 0.001 mg/l at 25 +/-1 degC after 8 days; settings: 192 h
Culex pipiens pallens [9] = test: Larvicidal activity against fourth-instar larval stage of Culex pipiens pallens (mosquito) assessed as mortality at 0.01 mg/l at 25 +/-1 degC after 8 days; settings: 192 h
Mythimna separata [10] = test: Larvicidal activity against fourth-instar larval stage of Mythimna separata (Oriental armyworm) in compound-pretreated corn leaves assessed as mortality at 2.5 mg/l at 25 +/-1 degC after 4 days
Mythimna separata [11] = test: Larvicidal activity against fourth-instar larval stage of Mythimna separata (Oriental armyworm) in compound-pretreated corn leaves assessed as mortality at 10 mg/l at 25 +/-1 degC after 4 days
Culex pipiens pallens [12] = test: Larvicidal activity against fourth-instar larval stage of Culex pipiens pallens (mosquito) assessed as mortality at 0.05 mg/l at 25 +/-1 degC after 8 days; settings: 192 h
Mythimna separata [13] = test: Ratio of Flucycloxuron LC50 to compound LC50 for fourth-instar larval stage of Mythimna separata (Oriental armyworm) measured after 4 days
Culex pipiens pallens [14] = test: Larvicidal activity against fourth-instar larval stage of Culex pipiens pallens (mosquito) assessed as mortality at 0.005 mg/l at 25 +/-1 degC after 8 days; settings: 192 h
Culex pipiens pallens [15] = test: Larvicidal activity against fourth-instar larval stage of Culex pipiens pallens (mosquito) assessed as mortality at 0.025 mg/l at 25 +/-1 degC after 8 days; settings: 192 h
Culex pipiens pallens [16] = test: Larvicidal activity against fourth-instar larval stage of Culex pipiens pallens (mosquito) assessed as mortality at 0.1 mg/l at 25 +/-1 degC after 8 days; settings: 192 h
Culex pipiens pallens [17] = test: Larvicidal activity against fourth-instar larval stage of Culex pipiens pallens (mosquito) assessed as mortality at 0.0005 mg/l at 25 +/-1 degC after 8 days; settings: 192 h
Culex pipiens pallens [18] = test: Larvicidal activity against fourth-instar larval stage of Culex pipiens pallens (mosquito) assessed as mortality at 0.25 mg/l at 25 +/-1 degC after 8 days; settings: 192 h
Culex pipiens pallens [19] = test: Larvicidal activity against fourth-instar larval stage of Culex pipiens pallens (mosquito) assessed as mortality at 0.5 mg/l at 25 +/-1 degC after 8 days; settings: 192 h
Mythimna separata [20] = test: Ratio of Hexaflumuron LC50 to compound LC50 for fourth-instar larval stage of Mythimna separata (Oriental armyworm) measured after 4 days
Cucumis sativus = test: Growth regulation of Cucumis sativus (cucumber) seeds assessed as stimulation of radicle growth at 10 mg/l at 26 degC after 5 days
Mythimna separata [21] = test: Larvicidal activity against fourth-instar larval stage of Mythimna separata (Oriental armyworm) in compound-pretreated corn leaves assessed as mortality at 25 +/-1 degC after 4 days
Culex pipiens pallens [22] = test: Larvicidal activity against fourth-instar larval stage of Culex pipiens pallens (mosquito) assessed as mortality at 1 mg/l at 25 +/-1 degC after 8 days; settings: 192 h
Mythimna separata [23] = test: Larvicidal activity against fourth-instar larval stage of Mythimna separata (Oriental armyworm) in compound-pretreated corn leaves assessed as mortality at 200 mg/l at 25 +/-1 degC after 4 days
Culex pipiens pallens [24] = test: Larvicidal activity against fourth-instar larval stage of Culex pipiens pallens (mosquito) assessed as mortality at 2 mg/l at 25 +/-1 degC after 8 days; settings: 192 h
Culex pipiens pallens [25] = test: Larvicidal activity against fourth-instar larval stage of Culex pipiens pallens (mosquito) assessed as mortality at 0.00025 mg/l at 25 +/-1 degC after 8 days; settings: 192 h
Mythimna separata [26] = test: Larvicidal activity against fourth-instar larval stage of Mythimna separata (Oriental armyworm) in compound-pretreated corn leaves assessed as mortality at 100 mg/l at 25 +/-1 degC after 4 days
Mythimna separata [27] = test: Larvicidal activity against fourth-instar larval stage of Mythimna separata (Oriental armyworm) in compound-pretreated corn leaves assessed as mortality at 50 mg/l at 25 +/-1 degC after 4 days
Mythimna separata [28] = test: Larvicidal activity against fourth-instar larval stage of Mythimna separata (Oriental armyworm) in compound-pretreated corn leaves assessed as mortality at 0.125 mg/l at 25 +/-1 degC after 4 days

SMILES	mortality at 25 µg/mL (Mythimna separata [1]) [%]	mortality at 0.0025 µg/mL (Culex pipiens pallens [2]) [%]	mortality at 0.25 µg/mL (Mythimna separata [3]) [%]	mortality at 0.5 µg/mL (Mythimna separata [4]) [%]	mortality at 5 µg/mL (Mythimna separata [5]) [%]	mortality at 1 µg/mL (Mythimna separata [6]) [%]	RatioLC50 (Culex pipiens pallens [7])	mortality at 0.001 µg/mL (Culex pipiens pallens [8]) [%]	mortality at 0.01 µg/mL (Culex pipiens pallens [9]) [%]	mortality at 2.5 µg/mL (Mythimna separata [10]) [%]	mortality at 10 µg/mL (Mythimna separata [11]) [%]	mortality at 0.05 µg/mL (Culex pipiens pallens [12]) [%]	mortality at 0.005 µg/mL (Culex pipiens pallens [14]) [%]	mortality at 0.025 µg/mL (Culex pipiens pallens [15]) [%]	mortality at 0.1 µg/mL (Culex pipiens pallens [16]) [%]	mortality at 0.25 µg/mL (Culex pipiens pallens [18]) [%]	mortality at 0.5 µg/mL (Culex pipiens pallens [19]) [%]	mortality at 1 µg/mL (Culex pipiens pallens [22]) [%]	mortality at 200 µg/mL (Mythimna separata [23]) [%]	mortality at 2 µg/mL (Culex pipiens pallens [24]) [%]	also measured
CC(C)(C)O/N=C/c1ccc(NC(=O)NC(=O)c2c(F)cccc2F)cc1	100	90	0	85	100	100	10	70	100	100	100	100	100	100	100						RatioLC50 (Mythimna separata [13]): 5; mortality at 0.0005 µg/mL (Culex pipiens pallens [17]): 20%
CC(C)O/N=C/c1ccc(NC(=O)NC(=O)c2c(F)cccc2F)cc1		15	0	50		100		0	100	100		100	75	100	100	100	100	100			RatioLC50 (Mythimna separata [20]): 9.4; Activity (Cucumis sativus): 55%; RatioLC50 (Mythimna separata [13]): 5; LC50 (Mythimna separata [21]): 0.5 µg/mL (≈ 1.38 µM)
O=C(NC(=O)c1c(F)cccc1F)Nc1ccc(/C=N/O)cc1															10	40	60	100	80	100	
O=C(NC(=O)c1c(F)cccc1F)Nc1ccc(/C=N/OC(C(F)(F)F)C(F)(F)F)cc1	100	100	0	40	100	90	10	90	100	100	100	100	100	100	100						mortality at 0.00025 µg/mL (Culex pipiens pallens [25]): 30%; mortality at 0.0005 µg/mL (Culex pipiens pallens [17]): 60%
O=C(NC(=O)c1c(F)cccc1F)Nc1ccc(/C=N/OCC(F)(F)F)cc1	100	70	0	60	100	90	10	10	100	100	100	100	100	100	100						
O=Cc1ccc(NC(=O)NC(=O)c2c(F)cccc2F)cc1																	0	80	0	100	mortality at 100 µg/mL (Mythimna separata [26]): 0%
C[Si](C)(C)O/N=C/c1ccc(NC(=O)NC(=O)c2c(F)cccc2F)cc1																0	100	100	100	100	mortality at 50 µg/mL (Mythimna separata [27]): 0%; mortality at 100 µg/mL (Mythimna separata [26]): 60%
CC1CCC(C(C)C)C(O/N=C/c2ccc(NC(=O)NC(=O)c3c(F)cccc3F)cc2)C1 (centres undefined)	100	100	10	40	100	80	10	80	100	100	100		100								mortality at 0.125 µg/mL (Mythimna separata [28]): 0%; mortality at 0.0005 µg/mL (Culex pipiens pallens [17]): 10%
O=C(NC(=O)c1c(F)cccc1F)Nc1ccc(/C=N/OCC2CCCC2)cc1	10										0				10	10	10	100	80	100	mortality at 50 µg/mL (Mythimna separata [27]): 10%; mortality at 100 µg/mL (Mythimna separata [26]): 40%

Source: ChEMBL document CHEMBL3045590, “Design, synthesis, bioactivity, and structure-activity relationship (SAR) studies of novel benzoylphenylureas containing oxime ether group” (2008)
